The values that follow come from US20100324142A1, “HYDROCORTISONE DERIVATIVES AND USE THEREOF FOR THERAPEUTIC OR COSMETIC INDICATIONS” (priority 2007, published 2010).

The subject of the data set is physiopathological hair loss of unknown cause (patients suffering from alopecia). The data set can be described thus: Double blind clinical trial on two hundred patients suffering from alopecia. It counts as in vivo, human. The method, then: Clinical Trial (Double Blind) on Two Hundred Patients Suffering from Alopecia
The action of the compound according to the invention, produced as described in Example 1, was assessed on a sample population of two hundred people, half of whom were of the female sex. All the persons included in the sample had been affected for at least four months by physiopathological hair loss of unknown cause.
A double blind trial was set up, in which one hundred patients were administered with a solution containing the compound according to the invention in bidistilled water and one hundred received a placebo solution. The solution according to the invention contained as excipients: sodium hydroxide, benzyl benzoate and benzalkonium chloride.

For the compound `CC1(CCC(=O)O)C(=O)CCC2C1C(O)CC1(C)C2CCC1(O)C(=O)CO` (stereo not drawn) [compound according to the invention, 3-[3,5-dihydroxy-3-(2-hydroxy-acetyl)-3a,6-dimethyl-7-oxo-dodecahydro-cyclo-penta[α]naphtalen-6-yl]-propionic acid], the “patients with good hair regrowth observed” value (at the end of the trial, solution of the compound in bidistilled water, one hundred treated patients) was 38%. Besides, the adverse side effects entry (even after many months of treatment) was “total absence of adverse side effects”. Also, the “subjects in whom hair loss was arrested” value (within the first week of treatment, solution of the compound in bidistilled water, one hundred treated patients, double blind vs placebo) turned out to be 94%.
